The results in this text go back to patent US20100324096A1, “Whitening Agent And Skin External Preparation” (SHISEIDO COMPANY LTD., priority 2008, published 2010).

The structures appear in SMILES notation.

For one experiment, the system named is Mouse B16 melanoma cells. Nature of the experiment: Melanin production inhibition test. As to conditions: Mus musculus, 72 h, Table 1, 3 days, minimum non-cytotoxic concentration at which melanin amount was 80% or less, read-out: Inhibitory effect on melanin production. It is filed as cell-based. On the procedure: A test for melanin production inhibition by the compounds of the formula (1) was conducted. The test method is as follows.
Melanin Production Inhibition Test
(1) Inoculation of Cells and Addition of Test Substances
Mouse B16 melanoma cells were inoculated in a six well plate at 100,000 cells/well. The next day, test substance solutions (solvent: DMSO) were added.
(2) Cell Proliferation Test
Three days after the addition of the test substance solution, the medium was removed by aspiration. Then 1 ml of EMEM medium containing 10% Alamar Blue solution was added, and a reaction was allowed to proceed at 37° C. After 30 minutes, 100 μL of the reaction mixture was transferred to a 96 well plate and fluorescence was measured at an excitation wavelength of 544 nm and a measurement wavelength of 590 nm. Using the value thus measured as a relative value of cell count, a ratio of the cell count (% cell count) of the test substance-added group to the test substance-absent group (group in which only the solvent was added) was calculated. The higher the % cell count, the lower the cytotoxicity. It was determined that a compound having the % cell count of 80% or more was non-cytotoxic, and that a compound having the % cell count of less than 80% was cytotoxic.
(3) Quantification of Melanin
The cells after the cell proliferation test were washed with PBS three times, and then lysed by addition of 200 μL of 1M NaOH to measure an absorbance at 475 nm. Using the value thus measured as a relative value of the melanin amount, a ratio of the melanin amount (%) of the test substance-added group to the test substance-absent group (group in which only the solvent was added) was calculated. The lower the ratio of the melanin amount, the higher the melanin production-inhibitory effect. […] The inhibitory effect on melanin production was evaluated according to the following criteria.
⊚: the minimum concentration for inhibition of melanin production was 1 ppm or less.
◯: the minimum concentration for inhibition of melanin production was more than 1 ppm and 10 ppm or less.
Take `Cc1ccccc1Nc1nc(-c2ccncc2)cs1` [Compound 1]: the minimal effective concentration was ≤ 1 µg/mL. As to `Cc1ccccc1Nc1nc(-c2ccccn2)cs1` [Compound 2, 4-(pyridin-2-yl)-N-o-toluylthiazol-2-amine], the minimal effective concentration was ≤ 1 µg/mL. With `CCc1ccccc1Nc1nc(-c2ccccn2)cs1` [Compound 3], the minimal effective concentration was ≤ 1 µg/mL. Regarding `c1ccc(Nc2nc(-c3ccccn3)cs2)cc1` [Compound 4], the minimal effective concentration is ≤ 1 µg/mL. `Cc1ccc(Nc2nc(C(C)(C)C)cs2)c(C)c1` [Compound 5]: the minimal effective concentration is ≤ 1 µg/mL. On the same count and under the same terms, the same measure for `COc1ccc(-c2nc(Nc3c(C)cccc3C)sc2C)cc1` [Compound 7]: ≤ 1 µg/mL; for `CCc1ccccc1Nc1nc(-c2ccc(O)c(O)c2)cs1` [Compound 9]: ≤ 1 µg/mL; for `CCc1ccccc1Nc1nc(-c2ccc(O)cc2O)cs1` [Compound 10]: ≤ 1 µg/mL.

The same experiment, now with this note: Mus musculus, 72 h, Table 3, 3 days, minimum non-cytotoxic concentration at which melanin amount was 80% or less, read-out: Inhibitory effect on melanin production.
As for `C=CCN(C1=NC(C)(C)C(=C)S1)c1ccc(C)cc1C` [Compound 31], the minimal effective concentration is ≤ 1 µg/mL. As to `C=C1SC(Nc2ccc(C)cc2C)=NC1(C)C` [Compound 32], the minimal effective concentration was ≤ 1 µg/mL.

The same experiment, now with this note: Mus musculus, 72 h, Table 4, 3 days, minimum non-cytotoxic concentration at which melanin amount was 80% or less, read-out: Inhibitory effect on melanin production.
Regarding `O=C(Nc1nccs1)C1(c2ccccc2)CCCC1` [Compound 36], the minimal effective concentration was ≤ 1 µg/mL.

The same experiment, now with this note: Table 1, 3 days, minimum non-cytotoxic concentration at which melanin amount was 80% or less.
Turning to `CC(=O)c1sc(Nc2ccccc2C)nc1C` [Compound 6], the “Inhibitory effect on melanin production” value is listed as “∘”.

Take `Cc1cccc(C)c1Nc1nc(-c2ccccc2)cs1` [Compound 8]: the “Inhibitory effect on melanin production” value is “⊚ (the minimum concentration for inhibition of melanin production was 1 ppm or less.)”.

The same experiment, now with this note: Table 3, 3 days, minimum non-cytotoxic concentration at which melanin amount was 80% or less.
Take `CCC1CSC(Nc2ccccc2)=N1` (centres unmarked) [Compound 19]: the “Inhibitory effect on melanin production” value is reported as “⊚ (the minimum concentration for inhibition of melanin production was 1 ppm or less.)”. As to `c1ccc(NC2=NCCS2)cc1` [Compound 20], the “Inhibitory effect on melanin production” value was “∘”. Same read-out and setting: the same measure for `CC1CN=C(Nc2ccccc2)S1` (centres unmarked) [Compound 21]: “⊚ (the minimum concentration for inhibition of melanin production was 1 ppm or less.)”. With `Cc1ccccc1NC1=NCCS1` [Compound 22], the “Inhibitory effect on melanin production” value is “⊚ (the minimum concentration for inhibition of melanin production was 1 ppm or less.)”. As for `COc1ccccc1NC1=NCCS1` [Compound 23], the “Inhibitory effect on melanin production” value is given as “⊚ (the minimum concentration for inhibition of melanin production was 1 ppm or less.)”. For `COc1ccc(NC2=NC(C)(C)CS2)cc1` [Compound 24], the “Inhibitory effect on melanin production” value is “∘”.

For `COc1cccc(NC2=NC(C)(C)CS2)c1` [Compound 25], the “Inhibitory effect on melanin production” value is “∘”. Consider `COc1ccccc1NC1=NC(C)(C)CS1` [Compound 26], for which the “Inhibitory effect on melanin production” value was “∘”. Still for that read-out and setting: the same measure for `Cc1ccc(NC2=NC(C)CS2)c(C)c1` (centres unmarked) [Compound 27]: “∘”; for `Cc1ccccc1NC1=NCC(C)(C)S1` [Compound 28]: “⊚ (the minimum concentration for inhibition of melanin production was 1 ppm or less.)”; for `OCC1(CO)CSC(Nc2ccccc2)=N1` [Compound 29]: “∘”.

As for `Cc1cc(C)c(NC2=NC(CO)(CO)CS2)c(C)c1` [Compound 30], the “Inhibitory effect on melanin production” value is recorded as “∘”.

The experiment is the same for the next values; noted with them: Table 4, 3 days, minimum non-cytotoxic concentration at which melanin amount was 80% or less.
As to `Cc1nc(NC(C)(C)C)sc1-c1ccccc1` [Compound 33], the “Inhibitory effect on melanin production” value is given as “⊚ (the minimum concentration for inhibition of melanin production was 1 ppm or less.)”. The same measure, in the same setting: the same measure for `Cc1ccc(C(=O)Nc2nc(C)cs2)cc1` [Compound 34]: “∘”; for `O=C(Nc1nc2c(s1)CCCC2)c1ccccc1` [Compound 35]: “⊚ (the minimum concentration for inhibition of melanin production was 1 ppm or less.)”; for `Cc1ccc2oc(Nc3nc(C)cc(O)n3)nc2c1` [Compound 37]: “∘”.

Staying with this experiment, now noted: Table 5, 3 days, minimum non-cytotoxic concentration at which melanin amount was 80% or less.
Consider `CC1(C)CN=C(Nc2cccnc2)S1` [Compound 38], for which the “Inhibitory effect on melanin production” value is “∘”. Regarding `CC1(C)CN=C(NC2CCCCC2)S1` [Compound 39], the “Inhibitory effect on melanin production” value is “∘”. Still for that read-out and setting: the same measure for `CC1(C)CN=C(NCc2ccccc2)S1` [Compound 40]: “∘”.
